Assay results as given in patent US20230321104A1, “USE OF PYRIDO[1,2-A]PYRIMIDINONE COMPOUND IN TREATING PERIPHERAL T CELL LYMPHOMA” (CHIA TAI TIANQING PHARMACEUTICAL GROUP CO., LTD., priority 2020, published 2023).

Tested on: relapsed/refractory peripheral T-cell lymphoma (PTCL)
Experiment: Clinical trials on peripheral T-cell lymphoma
Format: in vivo, human
Details: for SPD (sum of products of maximum vertical diameters of multiple lesions): baseline 717 mm
Method: 2.1 Administration Regimen • Method of administration: orally administered once daily, 15 mg or 20 mg each time, with 21 consecutive days of administration as one cycle. • Drug: tablet of the compound of formula I, 5 mg or 20 mg.
2.2 Enrollment Criteria • 1) Histopathologically confirmed relapsed/refractory peripheral T-cell lymphoma (PTCL), including four subtypes: peripheral T-cell lymphoma, not otherwise specified (PTCL-NOS); angioimmunoblastic T-cell lymphoma (AITL); anaplastic large cell lymphoma (ALCL); and extranodal NK/T cell lymphoma (NKTCL), nasal type; • 2) Has previously received at least first-line systemic treatment regimen, had disease progression during or after the most recent treatment, or had no objective response after adequate treatment; • 3) At least one measurable target lesion present (evaluated according to the Lugano evaluation criteria, 2014 edition); • 4) Age ≥18 years; ECOG (PS) score: 0-2; expected survival time ≥3 months; • 5) Main organ functions in the screening phase meet the following criteria:
Criteria for Blood Routine Examination (No Growth Factor Used or No Blood Transfusion Conducted within 14 Days): • Absolute neutrophil count (ANC)≥1.0×10^9/L; • Lymphocyte count (LYM)≥0.5×10^9/L; • CD4+ T lymphocyte count≥0.2×10^9/L; • Platelet (PLT)≥75×10^9/L (for patients with lymphoma bone marrow infiltration, ≥50×10^9/L acceptable); • Hemoglobin (Hb)≥80 g/L;

[1] = patients with peripheral T-cell lymphoma, oral once daily 15 mg or 20 mg

## COc1ncc(-c2ccc3ncc(OCCN(C)C)c(=O)n3c2)cc1NS(=O)(=O)c1ccc(F)cc1Cl [compound of formula I]
6 enrolled patients with peripheral T-cell lymphoma (3/6), oral once daily 15 mg or 20 mg, 21-day cycle, Lugano 2014 criteria
  objective response rate (ORR): 50%
Case 1, ALK negative anaplastic large cell lymphoma, 15 mg each day, after 2 cycles of medication
  SPD (sum of products of maximum vertical diameters of multiple lesions): 495 mm
Case 1, ALK negative anaplastic large cell lymphoma, 15 mg each day, after 4 cycles
  overall therapeutic effect: complete response (CR)
Case 1, 15 mg each day, after 4 cycles
  new lesion: no new lesion was found
Case 1, 15 mg each day, after 4 cycles of medication, baseline 7.0
  SUVmax of the highest uptake lesion, the left parotid gland area (PET-CT): 1.5
Case 1, 15 mg each day, after 4 cycles of medication
  SPD (sum of products of maximum vertical diameters of multiple lesions): 409 mm
Case 2, extranodal NK/T cell lymphoma, nasal type, 15 mg each day, after 2 cycles of treatment
  therapeutic effect: partial response (PR)
Case 2, extranodal NK/T cell lymphoma, nasal type, 15 mg each day, after 2 cycles of treatment, before treatment 280 mm
  SPD of measurable target lesions (enhanced MRI): 117 mm
Case 2, 15 mg each day, after 2 cycles of treatment
  new lesion: no new lesion was found
Case 2, 15 mg each day, after 2 cycles of treatment, versus 280 mm before treatment
  decrease of SPD: 58.2%
[1]
  safety in treatment: good safety
  therapeutic effect on peripheral T-cell lymphoma: good therapeutic effect
